Assay results reported in patent publication US10413545B2, “Imidazolin-5-one derivative useful as FASN inhibitors for the treatment of cancer” (Janssen Pharmaceutica NV, priority 2013, dated 2019).
Where two headings read alike, the source gives them in different places.

Assays:
Assay type in all cases: cell-based
A2780 ovarian cells = assay: A2780 Ovarian Cell Proliferation Assay in Lipid Reduced Medium, with and without Palmitate (MTT); details: Homo sapiens, 10% lipid-reduced serum, 96 h
[1] = system: LNCaP_Vancouver prostate cells; assay: In Vitro LNCaP Vancouver Prostate Cell Proliferation Assay in Lipid Reduced Medium; details: Prostate cell; 10% lipid reduced serum, 96 h, ATP-glow luminescence; read-out: pIC50 LNCaP_Vancouver prostate cell (converted)
Experimental: LNCaP_Vancouver prostate cells were obtained from the Vancouver Prostate Cancer Centre.
The next day 10 μl of test compound/DMSO diluted in medium was added (3E-5M, 1E-5M, 3E-6M,1E-6M, 3E-7M, 1E-7M, 3E-8M, 1E-8M final concentration). Compounds were tested in duplicate. After 96 h incubation at 37° C., 5% CO2 25 μl ATP-glow mix was added. The plate was incubated for 30 min at 37° C. and luminescence was measured with the Envision.
Analysis: Determination of pIC50 Values
pIC50 values were calculated as follows. Raw data generated by the instruments were normalized to % Controlmin values, which were calculated as: % Controlmin=100*(x−mLC)/(mHC−mLC),
where mLC and mHC are the means of the low control wells and high control wells on the plate, after manual exclusion of outliers. The relation between the % Controlmin values and concentration was fitted to a 4-parameter logistic curve using a non-linear least squares regression method to determine the pIC50 value. Outlying data points were excluded manually to get a correct fit. The pIC50 corresponds to −log 10(IC50), if the IC50 is expressed in molar units (http://www.ncbi.nlm.nih.qovibooks/NBK91994). The IC50 parameter was always determined by non-linear regression, but one or more of the other parameters may have been held fixed on a relevant input value, such as 0 for the bottom values.

[2] = system: PC-3M-Luc-C6 prostate cells; assay: In Vitro PC-3M-Luc-C6 Prostate Cell Proliferation Assay in Lipid Reduced Medium; details: Prostate cell, read-out: pIC50 PC-3M-Luc-C6 prostate cell (converted); 10% lipid reduced serum, 96 h, ATP-glow luminescence
[3] = 25 μM palmitate added (control), read-out: pIC50 With Palmitate (converted)
[4] = no palmitate, read-out: pIC50 Without Palmitate (converted)

Compound | IC50 (A2780 ovarian cells; [3]) [nM] | IC50 (A2780 ovarian cells; [4]) [nM] | IC50 [1] [nM] | IC50 [2] [nM]
CC1(C)N=C(c2ccc(-c3c[nH]c4ccccc34)cc2)N(C[C@@H]2CCN(C(=O)C3CC3)C2)C1=O [Compound 65, (R)-2-(4-(1H-indol-3-yl)phenyl)-1-((1-(cyclopropanecarbonyl)pyrrolidin-3-yl)methyl)-4,4-dimethyl-1H-imidazol-5(4H)-one] | > 10000 | 263 | 1260 | ~912
CC1(C2CC2)N=C(c2ccc(-c3ccc4occc4c3)cc2)N(C[C@@H]2CCN(C(=O)C3CC3)C2)C1=O (mixture of isomers) [Compound 9, (4RS)-2-(4-(Benzofuran-5-yl)phenyl)-1-(((R)-1-(cyclopropanecarbonyl)pyrrolidin-3-yl)methyl)-4-cyclopropyl-4-methyl-1H-imidazol-5(4H)-one] | > 10000 | ~1910 | 2040 | 1620
CC1(C)N=C(c2ccc(-c3ccc4cccnc4c3)cc2)N(C[C@@H]2CCN(C(=O)C3CC3)C2)C1=O [Compound 23] | > 10000 | 75.9 | 219 | 53.7
Cn1ncc2cc(-c3ccc(C4=NC(C)(C)C(=O)N4C[C@@H]4CCN(C(=O)C5(C)CC5)C4)c(F)c3)ccc21 [Compound 73, (R)-2-(2-fluoro-4-(1-methyl-1H-indazol-5-yl)phenyl)-4,4-dimethyl-1-((1-(1-methylcyclopropanecarbonyl)pyrrolidin-3-yl)methyl)-1H-imidazol-5(4H)-one] | > 10000 | 13.5 | 398 | 18.6
CC1(C)N=C(c2ccc(-c3nc4ccccc4o3)cc2)N(C[C@@H]2CCN(C(=O)C3CC3)C2)C1=O [Compound 11, (R)-2-(4-(benzo[d]oxazol-2-yl)phenyl)-1-((1-(cyclopropanecarbonyl)pyrrolidin-3-yl)methyl)-4,4-dimethyl-1H-imidazol-5(4H)-one] | > 10000 | 3720 | ~10000 | ~2000
CC1(C)N=C(c2ccc(-c3ccc4cnccc4c3)cc2)N(CC2CN(C(=O)C3CC3)C2)C1=O [Compound 27, 1-((1-(cyclopropanecarbonyl)azetidin-3-yl)methyl)-2-(4-(isoquinolin-6-yl)phenyl)-4,4-dimethyl-1H-imidazol-5(4H)-one] | > 10000 | ~316 | 1380 | 324
CC1(C)N=C(c2ccc(-c3nc4ccccc4o3)cc2F)N(CC2CN(C(=O)C3CC3)C2)C1=O [Compound 52, 2-(4-(benzo[d]oxazol-2-yl)-2-fluorophenyl)-1-((1-(cyclopropanecarbonyl)azetidin-3-yl)methyl)-4,4-dimethyl-1H-imidazol-5(4H)-one] | > 10000 | 708 | 1290 | 776
Cn1cc(-c2ccc(-c3ccc(C4=NC(C)(C)C(=O)N4C[C@@H]4CCN(C(=O)C5CC5)C4)c(F)c3)cc2)cn1 [Compound 45] | > 10000 | 26.3 | 117 | 67.6
COCC1(C)N=C(c2ccc(-c3ccc4occc4c3)cc2)N(C[C@@H]2CCN(C(=O)C3CC3)C2)C1=O (mixture of isomers) [Compound 8, (4RS)-2-(4-(Benzofuran-5-yl)phenyl)-1-(((R)-1-(cyclopropanecarbonyl)pyrrolidin-3-yl)methyl)-4-(methoxymethyl)-4-methyl-1H-imidazol-5(4H)-one] | > 10000 | 1150 | 2570 | 1290
CC1(C)N=C(c2ccc(-c3ccc4cccnc4c3)cc2F)N(CC2CN(C(=O)C3CC3)C2)C1=O [Compound 39, 1-((1-(cyclopropanecarbonyl)azetidin-3-yl)methyl)-2-(2-fluoro-4-(quinolin-7-yl)phenyl)-4,4-dimethyl-1H-imidazol-5(4H)-one] | > 10000 | ~91.2 | 269 | 95.5
CC1(C)N=C(c2ccc(-c3cccc4ncccc34)cc2)N(C[C@@H]2CCN(C(=O)C3CC3)C2)C1=O [Compound 31, (R)-1-((1-(cyclopropanecarbonyl)pyrrolidin-3-yl)methyl)-4,4-dimethyl-2-(4-(quinolin-5-yl)phenyl)-1H-1-imidazol-5(4H)-one] | > 10000 | ~1000 | 912 | ~617
CC1(C)N=C(c2ccc(-c3ccc4cccnc4c3)cc2)N(CC2CN(C(=O)C3CC3)C2)C1=O [Compound 24, 1-((1-(cyclopropanecarbonyl)azetidin-3-yl)methyl)-4,4-dimethyl-2-(4-(quinolin-7-yl)phenyl)-1H-imidazol-5(4H)-one] | > 10000 | ~363 | 1450 | 447
CC1(C)N=C(c2ccc(-c3ccc4cc(F)ccc4c3)cc2)N(CC2CN(C(=O)C3CC3)C2)C1=O [Compound 29, 1-((1-(cyclopropanecarbonyl)azetidin-3-yl)methyl)-2-(4-(6-fluoronaphthalen-2-yl)phenyl)-4,4-dimethyl-1H-imidazol-5(4H)-one] | > 10000 | 1230 | ~2820 | 1290
Cc1cc(-c2ccc3c(cnn3C)c2)ccc1C1=NC(C)(C)C(=O)N1CC1CN(C(=O)C2(C)CC2)C1 [Compound 77, 4,4-dimethyl-2-(2-methyl-4-(1-methyl-1H-1-indazol-5-yl)phenyl)-1-((1-(1-methylcyclopropanecarbonyl)azetidin-3-yl)methyl)-1H-imidazol-5(4H)-one] | > 10000 | 316 | 1170 | 112
COCC1(C)N=C(c2ccc(-c3ccc4c(cnn4C)c3)cc2)N(C[C@@H]2CCN(C(=O)C3CC3)C2)C1=O (mixture of isomers) [Compound 10, (4RS)-1-(((R)-1-(cyclopropanecarbonyl)pyrrolidin-3-yl)methyl)-4-(methoxymethyl)-4-methyl-2-(4-(1-methyl-1H-indazol-5-yl)phenyl)-1H-imidazol-5(4H)-one] | > 10000 | ~741 | 3630 | 933
CC1(C)N=C(c2ccc(-c3nc4ccccc4o3)cc2F)N(C[C@@H]2CCN(C(=O)C3CC3)C2)C1=O [Compound 51, (R)-2-(4-(benzo[d]oxazol-2-yl)-2-fluorophenyl)-1-((1-(cyclopropanecarbonyl)pyrrolidin-3-yl)methyl)-4,4-dimethyl-1H-imidazol-5(4H)-one] | > 10000 | 288 | 794 | 324
Cn1cc(-c2ccc(-c3ccc(C4=NC(C)(C)C(=O)N4CC4CN(C(=O)C5(C)CC5)C4)c(F)c3)cc2)cn1 [Compound 70] | > 10000 | 24.5 | 135 | 11
Cc1cc(-c2ccc(-c3cnn(C)c3)cc2)ccc1C1=NC(C)(C)C(=O)N1CC1CN(C(=O)C2(C)CC2)C1 [Compound 87, 4,4-dimethyl-2-(3-methyl-4′-(1-methyl-1H-pyrazol-4-yl)-[1,1′-biphenyl]-4-yl)-1-((1-(1-methylcyclopropanecarbonyl)azetidin-3-yl)methyl)-1H-imidazol-5(4H)-one] | ~10000 | 11.7 | 178 | ~70.8
CC1(C)N=C(c2ccc(-c3ccc4cccnc4c3)cc2F)N(C[C@@H]2CCN(C(=O)C3CC3)C2)C1=O [Compound 49, (R)-1-((1-(cyclopropanecarbonyl)pyrrolidin-3-yl)methyl)-2-(2-fluoro-4-(quinolin-7-yl)phenyl)-4,4-dimethyl-1H-imidazol-5(4H)-one] | > 10000 | 14.1 | 200 | ~24
CC1(C)N=C(c2ccc(-c3ccc4cncnc4c3)cc2F)N(C[C@@H]2CCN(C(=O)C3CC3)C2)C1=O [Compound 44, (R)-1-((1-(cyclopropanecarbonyl)pyrrolidin-3-yl)methyl)-2-(2-fluoro-4-(quinazolin-7-yl)phenyl)-4,4-dimethyl-1H-imidazol-5(4H)-one] | > 10000 | 46.8 | 389 | 47.9
CC1(C)N=C(c2ccc(-c3nc4ccccc4s3)cc2F)N(CC2CN(C(=O)C3CC3)C2)C1=O [Compound 34, 2-(4-(benzo[d]thiazol-2-yl)-2-fluorophenyl)-1-((1-(cyclopropanecarbonyl)azetidin-3-yl)methyl)-4,4-dimethyl-1H-imidazol-5(4H)-one] | > 10000 | 1000 | 2630 | 832
CC1(C)N=C(c2ccc(-c3cnc4ccccc4c3)cc2)N(C[C@@H]2CCN(C(=O)C3CC3)C2)C1=O [Compound 25, (R)-1-((1-(cyclopropanecarbonyl)pyrrolidin-3-yl)methyl)-4,4-dimethyl-2-(4-(quinolin-3-yl)phenyl)-1H-imidazol-5(4H)-one] | > 10000 | 1170 | 2880 | 891
